The source of these data is patent US11066651B2, “Methods and compositions relating to viral latency” (University of Utah Research Foundation, priority 2009, dated 2021).

One test relates to DHIV-infected NP cells. Description: HIV-1 reactivation by αCD3/CD28 in latently infected NP cells in the presence of signaling inhibitors (intracellular p24 Gag, flow cytometry). It is filed as cell-based, human. The note with it: αCD3/CD28 restimulation 3 days; for inhibition of reactivation: inhibitor preincubated 2 hr. As for the experimental part: (§1) To assess intracellular p24-gag expression, 5×10^5 cells were fixed and permeabilized with Citofix/Cytoperm during 30 min at 4° C. (BD Biosciences, San Diego, Calif.). Cells were washed with Perm/Wash Buffer (BD Biosciences) and stained with 1:40 dilution of anti-p24 antibody (AG3.0) in 100 μl of Perm/Wash Buffer during 30 min at 4° C. Cells were washed with Perm/Wash Buffer and incubated with 1:100 Alexa Fluor 488 goat anti-mouse IgG (H+L) in 100 μl of Perm/Wash Buffer during 30 min at 4° C. Cells were washed with Perm/Wash Buffer and samples were analyzed by flow cytometry. Forward versus side scatter plots were used to define the live population. In all the experiments, HIV p24-gag staining regions were set with uninfected cells treated in parallel.
2.5×10^5 cells were reactivated with beads coated with anti-CD3 and anti-CD28 during 72 hours in the presence of IL-2 (1 bead per cell).
For inhibition studies, cells were preincubated with the indicated inhibitor for 2 hr before stimulation (See Supplementary Methods on line for the concentration of each inhibitor or activator).
To begin to dissect potential signaling pathways leading to virus reactivation, a panel of known signaling inhibitors was tested. […] As a control, and to confirm expectations that the observed latent infections represent post-integration events, the integrase inhibitor, 118-D-24, was tested (FIG. 3A).
(§2) The concentration of each inhibitor or activator was as follows: 5 μM H-89, 50 μM PD98059, 250 nM Wortmannin, 15 nM bisindolylmaleimide II (BIM), 5 μM Rottlerin, 10 μM PP2, 50 μg/ml I kappa B Kinase Inhibitor Peptide, Cell-Permeable (IKK inh.) and 50 μM Forskolin (Calbiochem, San Diego, Calif.); 50 μM SB202190 and 125 ng/ml Leflunomide (Alexis Biochemicals, San Diego, Calif.); 10 nM Gö6976 and 1 μM Prostratin (LC Laboratories, Woburn, Mass.); 25 ng/ml TNF-α (Prepotech Inc.); 10 ng/ml phorbol 12-myristate 13-acetate, 1 μM Ionomycin, 5 μg/ml L-PHA and 1 mM Valproic Acid (Sigma, Saint Louis, Mo.); 500 ng/ml Cyclosporin A (Fluka/Sigma); 25 μM SP600125 (A.G. Scientific Int., San Diego, Calif.); and 20 μM Integrase Inhibitor (118-D-24).
Background: Flow cytometry measures light scatter and fluorescence of single cells or particles in a stream.

The subject of test [1] is Latently infected cells (DHIV-infected NP cells). Description: HIV-1 reactivation in latently infected NP cells by signaling agonists (intracellular p24 Gag, flow cytometry). It is filed as cell-based, human. The note with it: agonist 3 days at the concentration of b193; for ability of agonist to reactivate viral gene expression (in words): p24 Gag+ cells. As for the experimental part: as §1
To complement the inhibitor studies, additional experimentation was conducted using agonists for the above signaling pathways. Latently infected cells were either left untreated or incubated with agonist. As a positive control, cells were treated with αCD3/CD28. The ability of the agonist to promote viral reactivation was then evaluated by detection of intracellular p24^Gag as shown above (FIG. 4). Phytohemagglutinin (PHA), a lectin that binds non-specifically to carbohydrate moieties on surface glycoproteins and acts as a potent polyclonal mitogen for T cells, was the first to be tested.
as §2

Test [2] has as its system Jurkat latently infected cells. To be noted: Jurkat cell line; cited from earlier work.
In test [3] the test system is Latently infected cells (DHIV-infected NP cells). Description: PHA-mediated HIV-1 reactivation in the presence of inhibitors (intracellular p24 Gag). The format is cell-based, human.
Description: To assess intracellular p24-gag expression, 5×10^5 cells were fixed and permeabilized with Citofix/Cytoperm during 30 min at 4° C. […] Cells were washed with Perm/Wash Buffer (BD Biosciences) and stained with 1:40 dilution of anti-p24 antibody (AG3.0) in 100 μl of Perm/Wash Buffer during 30 min at 4° C. Cells were washed with Perm/Wash Buffer and incubated with 1:100 Alexa Fluor 488 goat anti-mouse IgG (H+L) in 100 μl of Perm/Wash Buffer during 30 min at 4° C. Cells were washed with Perm/Wash Buffer and samples were analyzed by flow cytometry. Forward versus side scatter plots were used to define the live population. In all the experiments, HIV p24-gag staining regions were set with uninfected cells treated in parallel.
For inhibition studies, cells were preincubated with the indicated inhibitor for 2 hr before stimulation (See Supplementary Methods on line for the concentration of each inhibitor or activator). […]
The subject of another test is latently infected cells. Description: IL-7+IL-2 induced viral reactivation in the presence of inhibitors. The format is cell-based, human. To be noted: IL-7+IL-2 stimulation. The text has this: Understanding the intracellular mediators of IL-7/IL-2 stimulation provides additional targets toward latent virus purging. Some of these mediators can be enzymes, such as kinases and phosphatases, which may be ameneable to agonistic or antagonistic drugs. It is also important to know the IL-7/IL-2 signaling because, as noted herein, this pathway is the basis for homeostatic proliferation of memory cells, where an important proportion of proliferating cells are not inducing viral reactivation.
IL-7 stimulation induces activation of p38MAPK (a noncanonical IL-7 dependent pathway). […] Therefore, p38α is also a mediator for reactivation via IL-7.

Another test has as its system p38α MAPK. To be noted: cited from earlier work.
The test system of test [4] is tumor cell lines harboring integrated, latent HIV-1. The note with it: through the activation of NFκB; cited from earlier work.
Setting [5] is: inhibitor at the concentration of b193.

Entries after “also recorded” stand apart in the source; their conditions may differ.

Take `CN1CCCC1CCn1cc(C2=C(c3c[nH]c4ccccc34)C(=O)NC2=O)c2ccccc21` (stereo not shown) [BIM, bisindolylmaleimide II]: the “effect of inhibitor on viral reactivation (in words)” value with DHIV-infected NP cells (setting [5]) is listed as “None of these three compounds had a negative effect on viral reactivation”.
The same measure, in the same setting: the entry for `Cn1c2ccccc2c2c3c(c4c5ccccc5n(CCC#N)c4c21)CNC3=O` [Gö6976] is “None of these three compounds had a negative effect on viral reactivation”.
On the same count and under the same terms, in the case of `O=S(=O)(NCCNC/C=C/c1ccc(Br)cc1)c1cccc2cnccc12` [H-89] it was “did not have any effect on viral reactivation”.
Consider `Cc1oncc1C(=O)Nc1ccc(C(F)(F)F)cc1` [Leflunomide], for which the “effect of inhibitor on viral reactivation (in words)” value with DHIV-infected NP cells (setting [5]) is given as “failed to block viral reactivation”; in the test with DHIV-infected NP cells (inhibitor at the concentration of b193, listed as lefluonomide), “does not block reactivation in memory cells”.
Turning to `COc1cccc(-c2cc(=O)c3ccccc3o2)c1N` [PD98059], the “effect of inhibitor on viral reactivation (in words)” value in the test on DHIV-infected NP cells (setting [5]) is listed as “Neither SP600125 nor PD98059 inhibited viral reactivation”.
`CCCCCCCCCCCCCC(=O)O[C@@H]1[C@@H](C)[C@@]2(O)[C@@H](C=C(CO)C[C@]3(O)C(=O)C(C)=C[C@@H]23)[C@@H]2C(C)(C)[C@]12OC(C)=O` [PMA, phorbol 12-myristate 13-acetate]: the “ability of agonist to reactivate viral gene expression (in words)” value (from here on “ability of agonist”) in test [1] was “Neither compound was able to reactivate viral gene expression; also recorded: failed to induce any degree of reactivation; also recorded: failed to induce any detectable reactivation”. Besides, in test [2], the “reactivation of latent viruses (in words)” value is recorded as “Reactivation of these latent viruses was accomplished”.
Consider `CC(C)(C)n1nc(-c2ccc(Cl)cc2)c2c(N)ncnc21` [PP2], for which, in test [3] (PHA stimulation co-incubated with inhibitor, relative to αCD3/CD28), the “viral reactivation with PHA in the presence of inhibitor (reactivation efficiency)” value amounted to 3%. In test [3] (PHA stimulation plus inhibitor), the “effect of inhibitor on reactivation by PHA (in words)” value is recorded as “completely blocked reactivation by PHA”. Besides, the inhibition of reactivation entry with DHIV-infected NP cells was “about 96%”.
With `CC(=O)c1c(O)c(C)c(O)c(Cc2c(O)c3c(c(C(=O)/C=C/c4ccccc4)c2O)OC(C)(C)C=C3)c1O` [Rottlerin], the “effect of inhibitor on viral reactivation (in words)” value in the test on DHIV-infected NP cells (setting [5]) is “None of these three compounds had a negative effect on viral reactivation”.
Take `Oc1ccc(-c2nc(-c3ccncc3)c(-c3ccc(F)cc3)[nH]2)cc1` [SB202190]: the inhibition of reactivation with DHIV-infected NP cells is reported as 66%.
For `C[S+]([O-])c1ccc(-c2nc(-c3ccncc3)c(-c3ccc(F)cc3)[nH]2)cc1` (stereo not shown) [SB203580], in the test with latently infected cells, the “effect of inhibitor on reactivation by IL-7+IL-2 (in words)” value is “can block reactivation”. For the same compound, the inhibition of reactivation entry in the test with DHIV-infected NP cells is “about 66%”. Besides, the “effect on IL-7 induced proliferative response (in words)” value in the test on p38α MAPK is recorded as “abrogated the proliferative response”.
As for `CCCC(CCC)C(=O)O` [VA, valproic acid], the “ability of agonist” value in test [1] is recorded as “failed to reactivate viral gene expression”; in test [1] (listed as Valproic acid), “incapable of inducing viral reactivation”.
For the compound `C[C@H](CCC(=O)O)C[C@H](C)C[C@H](C)C(=O)/C=C(\O)[C@H](C)C[C@H](C)C/C=C/[C@@H](C)[C@@H](O)[C@@H](C)[C@@H](O)C[C@@H]1CC[C@@](C)([C@H]2CC[C@@](C)([C@@H](C)O)O2)O1` [lonomycin, Ionomycin], in test [1], the “ability of agonist” value is “had no effect on viral reactivation; also recorded: produced no detectable reactivation”.
As to `CC(=O)O[C@@]12C[C@@H](C)[C@@]3(O)[C@@H](C=C(CO)C[C@]4(O)C(=O)C(C)=C[C@@H]34)[C@@H]1C2(C)C` [prostratin], the “ability of agonist” value in test [1] was “Neither compound was able to reactivate viral gene expression; also recorded: failed to induce any degree of reactivation”.
For Phytohemagglutinin [PHA], the “ability of agonist” value in test [1] is given as “induced reactivation almost as efficiently as αCD3/CD28 treatment”. The same compound yielded a reactivation efficiency in test [1] (relative to αCD3/CD28, formula) of 79%.
Regarding TNF-α, in test [4], the “induction of viral gene expression (in words)” value is listed as “can induce viral gene expression”. Further, the “ability of agonist” value in test [1] is reported as “failed to induce any degree of viral gene expression; also recorded: failed to induce any degree of reactivation; also recorded: failed to induce any detectable reactivation”. The “reactivation of latent viruses (in words)” value in test [2] is reported as “Reactivation of these latent viruses was accomplished”.
